{
  "source": "patent US12077607B2",
  "about": "“Functional and therapeutic effects of PAR4 cleavage by cathepsin G” (UNIVERSITY OF UTAH RESEARCH FOUNDATION, priority 2021, dated 2024)",
  "key": {"WT human PAR4 (hPAR4)": {"biological_target": "T1, WT human PAR4 (hPAR4) (Homo sapiens, UniProt Q96RI0)", "T1 construct": "Flag; expressed in transfected cells; host or cells: HEK293T/17 (ATCC CRL-11268)", "T1 sequence (Q96RI0 18-385)": "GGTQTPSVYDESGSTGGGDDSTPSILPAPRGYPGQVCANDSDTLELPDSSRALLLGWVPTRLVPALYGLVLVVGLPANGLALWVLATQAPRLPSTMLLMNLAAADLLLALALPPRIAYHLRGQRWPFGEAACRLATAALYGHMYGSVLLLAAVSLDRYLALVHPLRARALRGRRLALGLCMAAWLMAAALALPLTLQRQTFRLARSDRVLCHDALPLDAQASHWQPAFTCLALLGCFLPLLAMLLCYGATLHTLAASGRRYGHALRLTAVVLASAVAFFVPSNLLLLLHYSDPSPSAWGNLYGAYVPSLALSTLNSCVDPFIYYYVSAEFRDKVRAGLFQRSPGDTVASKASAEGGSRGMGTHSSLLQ", "assay": "PAR4 calcium flux assay in HEK293T/17 cells expressing WT PAR4", "type": "cell-based", "details": "CatG 2.5 μM; 100 nM vorapaxar", "method": "PAR4 calcium flux assays. PAR4-dependent calcium flux was measured using Fura2-QBT in platelets and HEK293T/17 cells with wild-type (WT) and mutant PAR4 (Tourdot et al., Arterioscler Thromb Vasc Biol. 2014; 34(12):2644-2650).\nPAR4 mutant calcium flux assays. Using Quikchange Lightning Site-Directed mutagenesis (Agilent) per manufacturing instructions, pCMV-Flag-PAR4-S66E, pCMV-Flag-PAR4-S67E, and pCMV-Flag-PAR4-R68E were generated from mutation of pCMV-Flag-PAR4 and confirmed by sequencing (University of Utah DNA Sequencing Core). Prior to transfection, HEK293T/17 cells (ATCC CRL-11268) were seeded at 4.5×10^4/mL. The following day, cells were transfected with the plasmid of interest using Lipofectamine 2000 (Invitrogen, Carlsbad, CA, USA). Twenty-four hours after transfection, media was removed and replaced with Optimem w/Glutamax (Gibco, Carlsbad, CA, USA) containing vorapaxar (100 nM) (Cayman Chemical, Ann Arbor, MI, USA) and Fura2-QBT (Molecular Devices). Following incubation for 1 hour at 37° C., plate was placed in the Flexstation 3 (Molecular Devices) where agonists, Tyrode's Buffer, cathepsin G (2.5 μM), or α-thrombin (1.5 U/mL), were injected onto cells and calcium mobilization was monitored and recorded."}, "washed platelets [1]": {"tested_on": "washed platelets", "assay": "Platelet calcium flux assay", "type": "cell-based, human", "details": "CatG 500 nM", "method": "Platelet calcium flux assay. Washed platelets were incubated at 37° C. for 1 hour in Tyrode's buffer (supplemented with pgel and heparin) with Fura-2AM (final concentration 2 μM). Platelets were washed and resuspended to a final concentration of 4×10^8/mL. Platelets were dispensed into a Costar 96-well half area clear bottom plate and placed in the Flexstation 3 (Molecular Devices) where cathepsin G (500 nM), buffer, or peptides (2 mM) were injected onto cells and calcium flux monitored.\n(§1) GYPGQV-NH2 (SEQ ID NO: 5), RALLLGWVPTR-NH2 (SEQ ID NO: 1), ALLLGWVPTR-NH2 (SEQ ID NO: 2), RALLLG-NH2 (SEQ ID NO: 4). Peptides were synthesized by BIOMATIK (Wilmington, DE, USA) at similar purities. All peptides were suspended in 50% DMSO and 50% ethanol. To measure platelet activation, washed platelets were stimulated with various concentrations of the peptide in the presence of CD41-APC, P-selectin (PE) and PAC-1 (FITC) for 15 minutes at 37° C. and then fixed with FACS Lysis Buffer. Samples were immediately run on a Cytoflex flow cytometer. In some experiments, platelets were stimulated with peptides and platelet aggregation performed as described above. Platelet calcium flux was induced by RALLLGWVPTR (2 mM; SEQ ID NO: 1), CatG (500 nM), ALLLGWVPTR (2 mM; SEQ ID NO: 2) or tyrodes buffer and monitored as described above."}, "washed platelets [2]": {"tested_on": "washed platelets", "assay": "Platelet activation by flow cytometry (PAC-1 binding, P-selectin)", "type": "cell-based, human", "method": "Platelet isolation, aggregation, and activation. Human washed platelets were prepared and resuspended in Tyrode's Buffer at 2×10^8/mL as described (Edelstein et al., Nat Med. 2013; 19(12):1609-1616). For human and dog platelet comparisons, platelets were prepared using a modified human platelet protocol with final concentrations of […] (Cayman Chemical, Ann Arbor, MI, USA) used during centrifugation steps. Centrifugations after Tyrode's washes was decreased to 1,250×g as described in Cremer et al., PLOS One. 2019; 14(11): e0224891. Platelet aggregation was measured under stirring conditions at 37° C. using a PAP-8E aggregometer after treatment with the following agonists: arachidonic acid (Bio/Data Corporation, Horsham, PA, USA), cathepsin G, elastase, proteinase 3 (Athens Research Group), α-thrombin (Sigma, St. Louis, MO, USA), PAR-1 peptide (SFLLRN) (GL Biochem, China). P-selectin and PAC-1 were measured as previously described (Yee et al., J Thromb Haemost. 2006; 4(9):2043-2050; Tourdot et al., Arterioscler Thromb Vasc Biol. 2014; 34(12):2644-2650).\nas §1"}, "[3]": {"details": "CatG stimulation, increasing concentrations"}},
  "data": [
    {"substance": "CatG: serine protease cathepsin G released by activated neutrophils", "values": [
      {"measurement": "CatG-induced calcium flux, WT PAR4 compared with mock transfection", "setting": "WT human PAR4 (hPAR4)", "value": "increased calcium flux"},
      {"measurement": "peak platelet calcium flux, CatG compared with RALLLGWVPTR", "setting": "washed platelets [1]; RA-11mer 2 mM", "value": "similar"},
      {"measurement": "platelet calcium flux", "setting": "washed platelets [1]; peptides 2 mM, FURA2-AM loaded washed platelets", "value": "decreased over time"},
      {"measurement": "P-selectin expression, PAR4 Thr120 homozygous platelets compared with Ala120", "setting": "washed platelets [2]; [3]", "value": "modest but significantly greater"},
      {"measurement": "αIIbβ3 activation, PAR4 Thr120 homozygous platelets compared with Ala120", "setting": "washed platelets [2]; [3]", "value": "modest but significantly greater"},
      {"measurement": "αIIbβ3 activation (PAC-1 binding) induced by neutrophil serine protease", "setting": "washed platelets [2]; washed platelets, varying concentrations", "value": "only protease to induce"}
    ]}
  ]
}
